According to patent US20250127799A1, “DRUG CONJUGATES FOR BONE MARROW PROTECTION” (priority 2023, published 2025):
Peptide text beside a SMILES is read from it. * marks the point of attachment. X1 = O=C(CCCCCN1C(=O)CC(*)C1=O)NCCCC(O)(P(=O)(O)O)P(=O)(O)O; X2 = O=P(O)(O)SCCNCCCN*

System: CD2F1 male mice
Test: Pathological evaluation of irradiated mice injected with a single dose
Format: in vivo
Set-up: key to Pathological change grade: Spleen, Depletion, white pulp / Pathological change grade: Lung, Infiltrate, mixed cells / Pathological change grade: Lung, Fibrosis / Pathological change grade: Heart, Infiltrate, mixed cells / Pathological change grade: Heart, Mineralization / Pathological change grade: Duodenum / Pathological change grade: Jejunum / Pathological change grade: Ileum / Pathological change grade: Colon, Infiltrate, mixed cells / Pathological change grade: Kidney / Pathological change grade: Urinary bladder / Pathological change grade: Bone Marrow, Atrophy / Pathological change grade: Bone Marrow, Hemorrhage / Pathological change grade: Liver: 0=no change; 1=a minimal change, barely perceptible; 2=a mild change; 3 =a moderate change, affecting up to 50% of the tissue; 4=marked change, affecting up to 90% of the tissue; 5=severe or maximum change
Protocol: CD2F1 male mice (N=16) were subcutaneously (sc) injected with a single dose of one conjugate drug. For one protective drug conjugate (Conjugate 2), the tested doses were 250, 500, 600, and 700 mg/kg, and the irradiation was conducted at 24 h post-drug administration. The structure of Conjugate 2 included amifostine as the protective drug, alendronate as the bone-targeting ligand, and a protease-cleavable peptide having the sequence of CPLGLYAL (SEQ ID NO: 29) with acetylation at the N-terminus (e.g., AcCPLGLYAL; SEQ ID NO: 76). On day 30, surviving mice were humanely sacrificed and necropsied, eleven tissues of interest (liver, spleen, lung, heart, duodenum, jejunum, ileum, colon, kidney, urinary bladder, and sternum/bone marrow) were collected, preserved in fixative, and processed to glass slides. The completed preparations were stained with hematoxylin and eosin and examined microscopically. Pathological changes in the tissues were graded using a semi-quantitation scale of 0-5, where 0=no change, 1=a minimal change, barely perceptible; 2=a mild change; 3 =a moderate change, affecting up to 50% of the tissue; 4=marked change, affecting up to 90% of the tissue; and 5=severe or maximum change.

[1] = 250 mg/kg sc, 24 h before 9.2 Gy, day 30, N = 11
[2] = 500 mg/kg sc, 24 h before 9.2 Gy, day 30, N = 12
[3] = 600 mg/kg sc, 24 h before 9.2 Gy, day 30, N = 15
[4] = 700 mg/kg sc, 24 h before 9.2 Gy, day 30, N = 16

CC(=O)N[C@@H](CSC1CC(=O)N(CCCCCC(=O)NCCCC(O)(P(=O)(O)O)P(=O)(O)O)C1=O)C(=O)N1CCC[C@H]1C(=O)N[C@@H](CC(C)C)C(=O)NCC(=O)N[C@@H](CC(C)C)C(=O)N[C@@H](Cc1ccc(O)cc1)C(=O)N[C@@H](C)C(=O)N[C@@H](CC(C)C)C(=O)NCCCNCCSP(=O)(O)O (some centres unmarked) [Conjugate 2] (Ac-C(X1)PLGLYAL-X2)
Pathological change grade: Bone Marrow, Atrophy [1]: 2-3 | Pathological change grade: Bone Marrow, Hemorrhage [1]: 0-1 | Pathological change grade: Colon, Infiltrate, mixed cells [1]: 1 | Pathological change grade: Duodenum [1]: 0 | Pathological change grade: Heart, Infiltrate, mixed cells [1]: 0 | Pathological change grade: Heart, Mineralization [1]: 0 | Pathological change grade: Ileum [1]: 0 | Pathological change grade: Jejunum [1]: 0 | Pathological change grade: Kidney [1]: 0 | Pathological change grade: Liver [1]: 0 | Pathological change grade: Lung, Fibrosis [1]: 0 | Pathological change grade: Lung, Infiltrate, mixed cells [1]: 0 | Pathological change grade: Spleen, Depletion, white pulp [1]: 2 | Pathological change grade: Urinary bladder [1]: 0 | Pathological change grade: Bone Marrow, Atrophy [2]: 2-3 | Pathological change grade: Bone Marrow, Hemorrhage [2]: 0-1 | Pathological change grade: Colon, Infiltrate, mixed cells [2]: 1 | Pathological change grade: Duodenum [2]: 0 | Pathological change grade: Heart, Infiltrate, mixed cells [2]: 0 | Pathological change grade: Heart, Mineralization [2]: 0 | Pathological change grade: Ileum [2]: 0 | Pathological change grade: Jejunum [2]: 0 | Pathological change grade: Kidney [2]: 0 | Pathological change grade: Liver [2]: 0 | Pathological change grade: Lung, Fibrosis [2]: 0 | Pathological change grade: Lung, Infiltrate, mixed cells [2]: 0 | Pathological change grade: Spleen, Depletion, white pulp [2]: 1-2 | Pathological change grade: Urinary bladder [2]: 0 | Pathological change grade: Bone Marrow, Atrophy [3]: 2-3 | Pathological change grade: Bone Marrow, Hemorrhage [3]: 0-1 | Pathological change grade: Colon, Infiltrate, mixed cells [3]: 0-1 | Pathological change grade: Duodenum [3]: 0 | Pathological change grade: Heart, Infiltrate, mixed cells [3]: 0 | Pathological change grade: Heart, Mineralization [3]: 0 | Pathological change grade: Ileum [3]: 0 | Pathological change grade: Jejunum [3]: 0 | Pathological change grade: Kidney [3]: 0 | Pathological change grade: Liver [3]: 0 | Pathological change grade: Lung, Fibrosis [3]: 0 | Pathological change grade: Lung, Infiltrate, mixed cells [3]: 0 | Pathological change grade: Spleen, Depletion, white pulp [3]: 1-2 | Pathological change grade: Urinary bladder [3]: 0 | sternal bone marrow histology compared to Vehicle Group (700 mg/kg 24 h before 9.2 Gy, day 30 (FIG. 11B)): much denser marrow | white pulp of the spleen, histology (700 mg/kg 24 h before 9.2 Gy, day 30 (FIG. 11D)): essentially normal | Pathological change grade: Bone Marrow, Atrophy [4]: 2 | Pathological change grade: Bone Marrow, Hemorrhage [4]: 0 | Pathological change grade: Colon, Infiltrate, mixed cells [4]: 0-1 | Pathological change grade: Duodenum [4]: 0 | Pathological change grade: Heart, Infiltrate, mixed cells [4]: 0 | Pathological change grade: Heart, Mineralization [4]: 0 | Pathological change grade: Ileum [4]: 0 | Pathological change grade: Jejunum [4]: 0 | Pathological change grade: Kidney [4]: 0 | Pathological change grade: Liver [4]: 0 | Pathological change grade: Lung, Fibrosis [4]: 0 | Pathological change grade: Lung, Infiltrate, mixed cells [4]: 0 | Pathological change grade: Spleen, Depletion, white pulp [4]: 1-2 | Pathological change grade: Urinary bladder [4]: 0 | protective effects on tissue pathology, especially bone marrow (250, 500, 600, 700 mg/kg, 24 h before 9.2 Gy): significant dose-depending protective effects
